Data as given in patent US9833423B2 (KOREA RESEARCH INSTITUTE OF CHEMICAL TECHNOLOGY, priority 2011, dated 2017).
Converted amounts (≈) assume the structure as drawn.

How the values were obtained:
[1] = test system: Polio-virus 3; assay: microbe, parasite or virus in culture; assay type: cell-based, Poliovirus 3; conditions: Table 3; HeLa, 37° C., 2 days
[2] = test system: mock-infected cells (HeLa, MRC-5, RD); conditions: human
[3] = test system: Coxsackie-virus B1; assay: Cytopathic effect (CPE) inhibition assay; assay type: cell-based, Coxsackievirus B1; conditions: for EC50: Enterovirus B, HeLa37, 48 h, read-out: Coxsackie-virus B1 EC50
[4] = test system: Coxsackie-virus A24 (DN); assay: Cytopathic effect (CPE) inhibition assay; assay type: cell-based, Coxsackievirus A24; conditions: Table 3; MRC-5, 37° C., 2 days
[5] = test system: Coxsackie-virus A24 (HG); assay: Cytopathic effect (CPE) inhibition assay; assay type: cell-based, Coxsackievirus A24; conditions: Table 3; MRC-5, 37° C., 2 days
[6] = test system: Coxsackie-virus B3; assay: Cytopathic effect (CPE) inhibition assay; assay type: cell-based, Coxsackievirus B3; conditions: for EC50: Enterovirus B, HeLa37, 48 h, read-out: Coxsackie-virus B3 EC50
[7] = Cytotoxicity (CC50) in mock-infected cells, MTT assay, Experimental Example 1; conditions: human
[8] = in vivo, cited from earlier work
[9] = in vivo; cited from earlier work
[10] = in vivo; cited from earlier work; remark: listed apart in the source

CCCCC(=O)NC1(c2ccc(C(C)C)cc2OC(=O)CCCC)C(=O)c2ccccc2C1=O [Example 69, 2-(1,3-Dioxo-2-pentanamido-2,3-dihydro-1H-inden-2-yl)-5-isopropylphenyl pentanoate]
EC50 Polio-virus 3 [1]: <1.0 µg/mL | CC50 [2]: >117 µg/mL | EC50 Coxsackie-virus B1 ([3]; Table 3, HeLa, 37° C., 2 days): <0.01 µg/mL | EC50 Coxsackie-virus A24 (DN) [4]: <1.0 µg/mL | EC50 Coxsackie-virus A24 (HG) [5]: <1.0 µg/mL | melting point: 128 to 130 °C | EC50 Coxsackie-virus B3 ([6]; Table 3, HeLa, 37° C., 2 days): <0.01 µg/mL

CNC(=O)Oc1cc(C(C)C)ccc1C1(NC(C)=O)C(=O)c2ccccc2C1=O [Example 97, 2-(2-Acetamido-1,3-dioxo-2,3-dihydro-1H-inden-2-yl)-5-isopropylphenyl methylcarbamate]
CC50 [7]: 45.1 µg/mL (≈ 114 µM) | EC50 [3]: < 0.01 µg/mL | EC50 [6]: < 0.01 µg/mL

CC(=O)NC1(c2ccc(C(C)C)cc2OC(=O)N(C)C)C(=O)c2ccccc2C1=O [Example 98, Dimethyl-carbamic acid 2-(2-acetylamino-1,3-dioxo-indan-2-yl)-5-isopropyl-phenyl ester]
CC50 [7]: > 100 µg/mL | EC50 [3]: 0.013 µg/mL (≈ 0.0318 µM)

CC(=O)NC1(c2ccc(C(C)C)cc2OC(=O)N(C)C)C(=O)c2cccc(N)c2C1=O (stereo not drawn) [Example 100, 2-(2-Acetamido-4-amino-1,3-dioxo-2,3-dihydro-1H-inden-2-yl)-5-isopropylphenyl dimethylcarbamate]
CC50 [7]: > 100 µg/mL | EC50 [3]: < 0.01 µg/mL | EC50 [6]: < 0.01 µg/mL

Cc1cc(CCCOc2c(C)cc(-c3noc(C(F)(F)F)n3)cc2C)on1 [Pleconaril]
oral bioavailability ([8]; po): very good

Cc1cc(CCCCCOc2c(Cl)cc(C3=NCCO3)cc2Cl)on1 [WIN 54954]
metabolization and excretion [9]: rapid | side effects [10]: skin rash

CCC(=O)C(CCCCCCOc1ccc(OC)cc1Cl)C(=O)CC [arildone]
bioavailability [8]: low

Cc1cc(CCCCCCCOc2ccc(C3=NCCO3)cc2)on1 [disoxaril]
bioavailability [8]: low | metabolization and excretion [9]: rapid
